# How the values were obtained:
# Test in all cases: relative viability (nuclei count vs DMSO), 5 days (fraction); higher = more cells survive
# [1] = compound: COc1cc(Nc2ncc3c(n2)-c2ccc(Cl)cc2C(c2c(F)cccc2OC)=NC3)ccc1C(=O)O [Alisertib] + COc1cc2c(Oc3ccc(NC(=O)C4(C(=O)Nc5ccc(F)cc5)CC4)cc3F)ccnc2cc1OCCCN1CCOCC1 [Foretinib] (partner 0.25 µM)
# Method in brief: (§1)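 Values are medians from duplicate plates. Each reflects relative viability, defined as the nuclei count of treated wells over that of vehicle wells. Lung cancer cell lines in 1536-well plates were pin-tool dosed one day after seeding with one drug alone or with a fixed anchor-drug dose plus five library-drug doses (not always all listed) in √10 steps, then fixed, stained and imaged at 4× after 5 days.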
# [2] = compound: COc1cc(Nc2ncc3c(n2)-c2ccc(Cl)cc2C(c2c(F)cccc2OC)=NC3)ccc1C(=O)O [Alisertib] + CS(=O)(=O)N1CCN(Cc2cc3nc(-c4cccc5[nH]ncc45)nc(N4CCOCC4)c3s2)CC1 [Pictilisib] (partner 1 µM)
# Method in brief: as §1
# [3] = compound: COc1cc(Nc2ncc3c(n2)-c2ccc(Cl)cc2C(c2c(F)cccc2OC)=NC3)ccc1C(=O)O [Alisertib] + NC(=O)Nc1cc(-c2cccc(F)c2)sc1C(=O)N[C@H]1CCCNC1 [AZD7762] (partner 0.2 µM)
# Method in brief: as §1
# [4] = compound: COc1cc(Nc2ncc3c(n2)-c2ccc(Cl)cc2C(c2c(F)cccc2OC)=NC3)ccc1C(=O)O [Alisertib] + O=C(CCCCCCC(=O)Nc1ccccc1)NO [Vorinostat] (partner 1 µM)
# Method in brief: as §1
Cell Line,relative viability ([1]; first compound 0.005 µM),relative viability ([1]; first compound 0.01581 µM),relative viability ([1]; first compound 0.05 µM),relative viability ([1]; first compound 0.1581 µM),relative viability ([1]; first compound 0.5 µM),relative viability ([2]; first compound 0.005 µM),relative viability ([2]; first compound 0.01581 µM),relative viability ([2]; first compound 0.05 µM),relative viability ([2]; first compound 0.1581 µM),relative viability ([2]; first compound 0.5 µM),relative viability ([3]; first compound 0.005 µM),relative viability ([3]; first compound 0.01581 µM),relative viability ([3]; first compound 0.05 µM),relative viability ([3]; first compound 0.1581 µM),relative viability ([3]; first compound 0.5 µM),relative viability ([4]; first compound 0.005 µM),relative viability ([4]; first compound 0.01581 µM),relative viability ([4]; first compound 0.05 µM),relative viability ([4]; first compound 0.1581 µM),relative viability ([4]; first compound 0.5 µM)
BEN,0.486,0.57,0.277,0.213,0.21,0.554,0.508,0.276,0.24,0.224,0.57,0.592,0.359,0.335,0.389,0.522,0.456,0.332,0.332,0.385
ABC-1,1.08,1.06,0.58,0.344,0.22,0.674,0.606,0.578,0.277,0.232,,0.594,0.648,0.307,0.272,0.993,0.753,0.46,0.249,0.332
HCC-15,0.999,0.627,0.184,0.139,0.129,0.586,0.64,0.233,0.117,0.123,0.994,1.16,1.12,0.355,0.133,0.777,0.588,0.201,0.167,0.134
NCI-H2170,0.715,0.972,0.605,0.563,0.181,0.276,0.303,0.282,0.19,0.192,0.85,0.608,0.59,0.199,0.176,0.766,0.782,0.318,0.2,0.164
RERF-LC-KJ,0.861,0.772,0.484,0.356,0.21,0.49,0.517,0.435,0.206,0.159,0.798,0.799,0.801,0.236,0.214,0.626,0.507,0.391,0.252,0.213
NCI-H1993,0.772,0.849,0.525,0.484,0.557,0.895,0.785,0.67,0.568,0.778,0.85,0.629,0.391,0.324,0.364,0.63,0.436,0.395,0.372,0.339
NCI-H358,0.608,0.485,0.181,0.111,0.0732,0.269,0.327,0.217,0.154,0.14,0.424,0.433,0.183,0.175,0.165,0.551,0.449,0.105,0.1,0.0875
NCI-H1915,0.998,0.907,0.431,0.463,0.236,0.732,0.675,0.45,0.301,0.174,0.531,0.597,0.277,0.254,0.206,0.496,0.473,0.374,0.206,0.161

# From the supplement of paper PMC10307832
